Data as given in US10815235B2, “Polycyclic compounds and uses thereof” (priority 2017, dated 2020).
Like-named read-outs stand apart in the source and are kept apart here.

Key:
[1] = biological target: Serotonin 5-HT1D receptor (Homo sapiens, UniProt P28221); assay: GTPγS Scintillation Proximity Assay, agonist and antagonist mode; assay type: biochemical
Description: Antagonist and agonist activities were determined using a GTPγS Scintillation Proximity Assay. The assay was prepared as follows: Membrane extracts were prepared from recombinant human Dopamine D2L, D3; Serotonin 5-HT1A, 5-HT1B, 5-HT1D and 5-HT1F receptors.
Samples were tested by proprietary biological assays by Ogeda S. A., Euroscreen FAST Business Unit, Rue Adrienne Bolland, 47 B-6041 Gosselies, Belgium. Each protein assay was prepared using the following conditions.
5-HT1D • Assay buffer: 20 mM HEPES pH 7.4; 200 mM NaCl, 10 μg/ml saponin, 3 mM MgCl2; • Membranes: recombinant 5-HT1D membrane extracts thawed on ice and diluted in assay buffer to give […] and kept on ice; • GDP: diluted in assay buffer to give a 30 μM working solution (3 μM final concentration); • Beads: PVT-WGA (Perkin Elmer, RPNQ001), diluted in assay buffer at 50 mg/ml (0.5 mg/10 μl); and • GTPγ^35S: (PerkinElmer NEG030X), diluted in assay buffer to give 0.1 nM.
Membranes were mixed with GDP (volume:volume 1:1) and incubated for at least 15 min on ice. In parallel, GTPγ[^35S] is mixed with the beads (volume:volume 1:1) just before starting the reaction.
To determine agonist activity, the following reagents were added in the wells of an Optiplate (Perkin Elmer): 50 μL of test or reference ligand, 10 μL of assay buffer, 20 μl of the membranes:GDP mix, and 20 μL of the GTPγ[^35S]:beads mix. EC50 values were used to determine whether a compound acted as an agonist.
To determine antagonist activity, the following reagents were added in the wells of an Optiplate (Perkin Elmer): 50 μL of test or reference ligand, 20 μL of the membranes:GDP mix, then the plate is incubated 15 minutes at room temperature. After incubation, 10 μL of reference agonist at historical EC80 (final concentration) was added, followed by 20 μL of the GTPγ[^35S]:beads mix.
The plates were covered with a top seal, mixed on an orbital shaker for 2 min, and then incubated for 1 hour at room temperature. Then the plates were centrifuged for 10 min at 2000 rpm, incubated at room temperature 1 hour and counted for 1 min/well with a PerkinElmer TopCount reader. IC50 values were used to determine whether a compound acted as an antagonist.

[2] = biological target: T1, Serotonin 5-HT2B receptor (Homo sapiens, UniProt P41595); assay: IPOne HTRF assay, agonist and antagonist mode; assay type: cell-based
T1 construct: expressed in transfected cells; host or cells: CHO-K1
Description: Antagonist and agonist activities were determined using an IPOne […] HTRF assay. The assay was prepared as follows: CHO-K1 cells expressing human recombinant Adrenergic α1A, Serotonin 5-HT2A, and 5-HT2B receptors grown to mid-log phase in culture media without antibiotics were detached with PBS-EDTA, centrifuged and resuspended in medium without antibiotics buffer. 20,000 cells were distributed in a 96 well plate and incubated overnight at 37° C. with 5% CO2.
To analyze agonist activity, the medium was removed and 20 μl of assay buffer plus 20 μl of test compound or reference agonist were added in each well. The plate was incubated for 60 min. at 37° C. with 5% CO2. EC50 values were used to determine whether a compound acted as an agonist.
To analyze antagonist activity, 20 μl of test compound or reference antagonist was added and the plate is incubated for 15 min. at 37° C. in a humidified atmosphere of 95% air with 5% CO2, then 20 μl of reference agonist at a final concentration corresponding to the historical EC80 is added. The plate is incubated for 60 min. at 37° C. with 5% CO2. IP1-D2 reagent and anti-IP1 cryptate reagents are then dispensed in the wells and IP1 concentrations are then measured following the manufacturer recommendations. IC50 values were used to determine whether a compound acted as an antagonist.

T1 sequence (P41595 whole entry): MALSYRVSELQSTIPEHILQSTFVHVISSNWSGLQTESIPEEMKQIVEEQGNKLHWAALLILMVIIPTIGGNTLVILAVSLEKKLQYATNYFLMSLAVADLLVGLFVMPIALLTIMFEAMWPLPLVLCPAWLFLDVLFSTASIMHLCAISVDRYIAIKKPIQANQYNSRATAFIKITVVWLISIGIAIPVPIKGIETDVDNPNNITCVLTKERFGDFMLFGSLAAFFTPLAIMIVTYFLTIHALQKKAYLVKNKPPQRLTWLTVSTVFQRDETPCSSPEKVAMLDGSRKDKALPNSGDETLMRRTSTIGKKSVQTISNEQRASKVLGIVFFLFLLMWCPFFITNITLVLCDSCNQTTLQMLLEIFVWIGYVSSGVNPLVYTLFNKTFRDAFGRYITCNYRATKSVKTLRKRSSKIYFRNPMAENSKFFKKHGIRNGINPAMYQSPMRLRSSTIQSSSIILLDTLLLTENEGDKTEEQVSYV
Serotonin 5-HT1D receptor, sequence (P28221 whole entry): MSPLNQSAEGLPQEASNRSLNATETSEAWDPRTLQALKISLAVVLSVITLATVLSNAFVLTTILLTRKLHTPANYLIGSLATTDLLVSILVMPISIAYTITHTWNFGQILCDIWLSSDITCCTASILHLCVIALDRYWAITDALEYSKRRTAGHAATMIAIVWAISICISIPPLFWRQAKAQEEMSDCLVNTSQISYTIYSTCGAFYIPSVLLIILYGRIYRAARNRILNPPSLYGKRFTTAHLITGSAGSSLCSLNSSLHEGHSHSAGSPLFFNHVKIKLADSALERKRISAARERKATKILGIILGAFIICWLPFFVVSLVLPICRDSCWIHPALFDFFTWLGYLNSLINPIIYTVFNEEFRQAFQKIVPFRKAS

CC[C@@H](CO)NC(=O)[C@@H]1C=C2c3cccc4c3c(c(C3CC3)n4C)C[C@H]2N(C)C1 [Compound D13, (6aR,9R)-5-cyclopropyl-N—((S)-1-hydroxybutan-2-yl)-4,7-dimethyl-4,6,6a,7,8,9-hexahydroindolo[4,3-fg]quinoline-9-carboxamide]
EC50 ([1]; Agonist Activity (EC50), 5-HT1D, membrane extracts): 730 nM | EC50 ([1]; EC50 value for the Serotonin 5-HT1D receptor, agonist mode, bound stated): < 1000 nM | IC50 ([2]; CHO-K1 cells, vs reference agonist at EC80, read-out: Antagonist Activity (IC50), 5-HT2B): 140 nM | IC50 ([2]; antagonist mode, bound stated, read-out: IC50 value for the Serotonin 5-HT2B receptor): < 1000 nM
